#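 Compound exposure: 48 hours, 5 concentrations, 96-well plates. GI50: concentration for 50% inhibition of growth.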 The source made the active and inactive calls. No stated cut-off is given here; in the data, active = GI50 up to about 1.1 µM and inactive = higher. Non-standard residues stand in square brackets, D forms with d. Residues, ends and D or L forms follow the SMILES beside them. *: point of attachment. Ac5c = NC1(C(=O)O)CCCC1; Boc = CC(C)(C)OC(=O)*; tBu = CC(C)(C)*
# Experiments:
# Test in all cases: growth of human tumour cells (NCI), 48 h
# [1] = tested on: MDA-MB-231
# [2] = tested on: MCF7
# [3] = tested on: RPMI-8226
# [4] = tested on: SNB-75
# [5] = tested on: A498
# [6] = tested on: KM12
# [7] = tested on: OVCAR-4
# [8] = tested on: A549
# [9] = tested on: HOP-62
# [10] = tested on: UACC-62
# [11] = tested on: SNB-19
# [12] = tested on: Malme-3M
# [13] = tested on: SW-620
# [14] = tested on: DU-145
# [15] = tested on: CCRF-CEM
# [16] = tested on: COLO 205
# [17] = tested on: NCI-H522
# [18] = tested on: RXF 393
# [19] = tested on: SK-MEL-28
SMILES,GI50 [1],GI50 [2],GI50 [3],GI50 [4],GI50 [5],GI50 [6],GI50 [7],GI50 [8],GI50 [9],GI50 [10],GI50 [11],GI50 [12],GI50 [13],GI50 [14],GI50 [15],GI50 [16],GI50 [17],GI50 [18],GI50 [19]
CC(=O)N1C(C(=O)NN2CCOCC2)CSC1c1ccccc1 (configuration not stated),> 100 µM (inactive),> 100 µM (inactive),> 100 µM (inactive),> 100 µM (inactive),> 100 µM (inactive),> 100 µM (inactive),> 100 µM (inactive),> 100 µM (inactive),> 100 µM (inactive),> 100 µM (inactive),> 100 µM (inactive),> 100 µM (inactive),> 100 µM (inactive),> 100 µM (inactive),> 100 µM (inactive),> 100 µM (inactive),> 100 µM (inactive),–,–
Cc1ccc(/C=C2\N=C(N3CCCC(CO)C3)NC2=O)cc1 (configuration not stated),> 100 µM (inactive),> 100 µM (inactive),> 100 µM (inactive),> 100 µM (inactive),–,> 100 µM (inactive),> 100 µM (inactive),> 100 µM (inactive),> 100 µM (inactive),> 100 µM (inactive),> 100 µM (inactive),> 100 µM (inactive),> 100 µM (inactive),> 100 µM (inactive),> 100 µM (inactive),> 100 µM (inactive),> 100 µM (inactive),> 100 µM (inactive),> 100 µM (inactive)
O=S(=O)(Nc1ccc2ccc3cccc4ccc1c2c34)c1ccccc1,30.8 µM (inactive),43.4 µM (inactive),6.34 µM (inactive),55.7 µM (inactive),–,9.98 µM (inactive),> 100 µM (inactive),52.8 µM (inactive),33.3 µM (inactive),8.95 µM (inactive),85.5 µM (inactive),38.9 µM (inactive),30.1 µM (inactive),> 100 µM (inactive),14.1 µM (inactive),29.5 µM (inactive),4.27 µM (inactive),> 100 µM (inactive),> 100 µM (inactive)
CN(Cc1cnc2nc(N)nc(N)c2n1)c1ccc(C(=O)NC(CCC(=O)NC(CC(P(=O)(O)O)P(=O)(O)O)C(=O)O)C(=O)O)cc1 (configuration not stated),> 100 µM (inactive),> 100 µM (inactive),–,> 100 µM (inactive),–,–,> 100 µM (inactive),> 100 µM (inactive),> 100 µM (inactive),> 100 µM (inactive),> 100 µM (inactive),> 100 µM (inactive),> 100 µM (inactive),> 100 µM (inactive),–,> 100 µM (inactive),> 100 µM (inactive),> 100 µM (inactive),> 100 µM (inactive)
CC(OC(C)(C)C)C1NC(=O)C(CCCCNC(=O)OC(C)(C)C)NC(=O)C(Cc2c[nH]c3ccccc23)NC(=O)C(Cc2ccccc2)NC(=O)C2(CCCC2)NC(=O)C(Cc2ccccc2)NC1=O (configuration not stated) (cyclo([Ac5c]FWK(Boc)T(tBu)F); configuration not given here),17.5 µM (inactive),18.5 µM (inactive),10.7 µM (inactive),–,–,29.4 µM (inactive),49.9 µM (inactive),–,49.4 µM (inactive),21.6 µM (inactive),34.2 µM (inactive),27.3 µM (inactive),22.9 µM (inactive),50.9 µM (inactive),28.2 µM (inactive),20.4 µM (inactive),21.4 µM (inactive),37.5 µM (inactive),22.3 µM (inactive)
C[C@@H]1OC2(O)[C@@H]3CCCN3C(=O)N(Cc3ccccc3)N2C1=O (some centres not stated),> 100 µM (inactive),> 100 µM (inactive),–,0.331 µM (active),> 100 µM (inactive),> 100 µM (inactive),> 100 µM (inactive),> 100 µM (inactive),> 100 µM (inactive),> 100 µM (inactive),> 100 µM (inactive),> 100 µM (inactive),> 100 µM (inactive),> 100 µM (inactive),> 100 µM (inactive),> 100 µM (inactive),–,> 100 µM (inactive),> 100 µM (inactive)
Cc1ccc(S(=O)(=O)NC(=O)N[C@@H](Cc2c[nH]cn2)C(=O)O)cc1,> 100 µM (inactive),> 100 µM (inactive),37.3 µM (inactive),> 100 µM (inactive),–,> 100 µM (inactive),> 100 µM (inactive),> 100 µM (inactive),> 100 µM (inactive),> 100 µM (inactive),> 100 µM (inactive),> 100 µM (inactive),> 100 µM (inactive),> 100 µM (inactive),> 100 µM (inactive),> 100 µM (inactive),> 100 µM (inactive),> 100 µM (inactive),> 100 µM (inactive)
CSc1nc(NC(C)C)c2c(n1)Sc1nc3ccccc3n1C2O (configuration not stated),9.14 µM (inactive),0.0465 µM (active),0.0432 µM (active),4.61 µM (inactive),–,3.01 µM (inactive),4.98 µM (inactive),3.41 µM (inactive),6.37 µM (inactive),–,–,1.98 µM (inactive),2.27 µM (inactive),3.18 µM (inactive),1.75 µM (inactive),1.65 µM (inactive),2.28 µM (inactive),3.86 µM (inactive),3.34 µM (inactive)
NC(=O)NCCCC(NC(=O)OCCCCCCn1ccc(=O)[nH]c1=O)C(=O)O (configuration not stated),> 100 µM (inactive),> 100 µM (inactive),34.5 µM (inactive),> 100 µM (inactive),–,> 100 µM (inactive),> 100 µM (inactive),> 100 µM (inactive),> 100 µM (inactive),> 100 µM (inactive),> 100 µM (inactive),–,> 100 µM (inactive),> 100 µM (inactive),> 100 µM (inactive),> 100 µM (inactive),–,> 100 µM (inactive),> 100 µM (inactive)
CCC1=CCC23C(=O)C=CC(=O)C2(C1)C(=O)c1cccc(OC)c1C3=O (configuration not stated),15.1 µM (inactive),14.3 µM (inactive),4.41 µM (inactive),15.6 µM (inactive),–,20.9 µM (inactive),12.7 µM (inactive),23.8 µM (inactive),22.7 µM (inactive),15.8 µM (inactive),23.8 µM (inactive),15.9 µM (inactive),15.5 µM (inactive),16.9 µM (inactive),3.26 µM (inactive),14.9 µM (inactive),31.8 µM (inactive),6.38 µM (inactive),18.2 µM (inactive)
C/C1=C/C[C@@H](/C(C)=C/c2csc(C)n2)OC(=O)C[C@H](O)C(C)(C)C(=O)[C@H](C)[C@@H](O)[C@@H](C)CCC1 [EPOTHILONE D],< 0.0001 µM (active),< 0.0001 µM (active),< 0.0001 µM (active),< 0.0001 µM (active),–,< 0.0001 µM (active),0.137 µM (active),< 0.0001 µM (active),< 0.0001 µM (active),< 0.0001 µM (active),< 0.0001 µM (active),–,< 0.0001 µM (active),< 0.0001 µM (active),< 0.0001 µM (active),< 0.0001 µM (active),< 0.0001 µM (active),< 0.0001 µM (active),–
Cc1ccc2nc(-c3ccccc3)cc(=O)n2c1,> 100 µM (inactive),> 100 µM (inactive),> 100 µM (inactive),> 100 µM (inactive),–,> 100 µM (inactive),> 100 µM (inactive),> 100 µM (inactive),> 100 µM (inactive),> 100 µM (inactive),> 100 µM (inactive),> 100 µM (inactive),> 100 µM (inactive),> 100 µM (inactive),> 100 µM (inactive),> 100 µM (inactive),> 100 µM (inactive),> 100 µM (inactive),> 100 µM (inactive)
CC1C[C@]2(C)C(=S)Nc3ccccc3[C@@H]2Nc2ccccc21 (some centres not stated),13.2 µM (inactive),13 µM (inactive),23.4 µM (inactive),13.9 µM (inactive),21.5 µM (inactive),15.5 µM (inactive),17.8 µM (inactive),19.1 µM (inactive),17.7 µM (inactive),18 µM (inactive),21.7 µM (inactive),15.9 µM (inactive),25.9 µM (inactive),4 µM (inactive),17.9 µM (inactive),14.2 µM (inactive),–,19 µM (inactive),0.39 µM (active)
CC1=NN(c2nc(N)nc(CS(C)(=O)=O)n2)C(C)(C)C1,> 100 µM (inactive),> 100 µM (inactive),> 100 µM (inactive),> 100 µM (inactive),> 100 µM (inactive),> 100 µM (inactive),> 100 µM (inactive),–,> 100 µM (inactive),> 100 µM (inactive),> 100 µM (inactive),–,> 100 µM (inactive),> 100 µM (inactive),> 100 µM (inactive),> 100 µM (inactive),–,> 100 µM (inactive),> 100 µM (inactive)
O=Cc1c2n(c3ccccc13)N[C@@](Cc1ccc(O)cc1)(C(=O)O)C2,> 100 µM (inactive),55.5 µM (inactive),> 100 µM (inactive),–,> 100 µM (inactive),> 100 µM (inactive),68.7 µM (inactive),> 100 µM (inactive),46.7 µM (inactive),> 100 µM (inactive),> 100 µM (inactive),60.3 µM (inactive),56.8 µM (inactive),> 100 µM (inactive),34.5 µM (inactive),> 100 µM (inactive),25.5 µM (inactive),–,> 100 µM (inactive)
Cn1c2ccccc2c(=NNc2cccc(C(=O)O)c2)c2ccccc21,11 µM (inactive),3.4 µM (inactive),5.96 µM (inactive),23.9 µM (inactive),–,23.3 µM (inactive),12.4 µM (inactive),5.75 µM (inactive),12.7 µM (inactive),16.9 µM (inactive),6.84 µM (inactive),20.1 µM (inactive),5.64 µM (inactive),11.9 µM (inactive),6.41 µM (inactive),12.2 µM (inactive),5.05 µM (inactive),6.38 µM (inactive),19.2 µM (inactive)

# Source: ChEMBL document CHEMBL1201862, “PubChem BioAssay data set” (2004)
